Data set [1] concerns RC0.1 (DU145-RC0.1) cells. As to conditions: adopted from Urasaki Y et al.; cited from earlier work.
Data set [2] concerns DU145 prostate cancer cells. To be noted: DU-145; adopted from Urasaki Y et al.; cited from earlier work.
Data set [3] deals with RC0.1 (DU145-RC0.1) cells. In words: Cell growth inhibition, DU145 sub-line with Top1 mutation. It counts as cell-based, human. An excerpt: (§1) Each dot is the mean±SD derived from 3 independent assays.
(§2) Irinotecan and topotecan are the only two analogs derived from direct modification of camptothecin (CPT) that are approved by the FDA for cancer treatment in clinical practice. […] In this regard, we obtain one DU145 parental prostate cancer cell line and two DU145-derived sub-lines with Top1 mutations (DU145-RC0.1, DU145-RC1).

Data set [4] has as its system RC1 (DU145-RC1) cells. Described as above. It is filed as cell-based, human.
Excerpt: as §1, §2

In data set [5] the test system is DU145 prostate cancer cells. Description: Cell growth inhibition, cell counting after 72 h. It is filed as cell-based, human.
Excerpt: as §1, §2

Data set [6] has as its system RC1 (DU145-RC1) cells. To be noted: adopted from Urasaki Y et al.; cited from earlier work.
In data set [7] the test system is ABCG2 in HCT116-A2 cells. It is filed as cell-based, human. On the procedure:
Cell numbers are then counted at each drug concentration used. […] Cell numbers at each dot is the mean±SD derived from 3 independent assays. Data are plotted graphically and EC50 values are calculated using GraphPad Prism 6.0.
ABCG2 positive HCT116-derived colon cancer cells (HCT116-A2) grown at sub-confluence are treated with a series of concentrations of topotecan in triplicate for 72 hours in the presence or absence of Ko143 at 1 μM concentrations as shown. Cell numbers are then counted at each topotecan concentration used. […] Cell numbers at each dot is the mean±SD derived from 3 independent assays. Data are plotted graphically and EC50 values and R-values are calculated using GraphPad Prism 6.0.
Clinically, development of resistance to irinotecan and topotecan occurs commonly during treatment, often involving the upregulation of ABCG2. By increasing the rate of drug export, ABCG2 decreases the amount of SN-38, irinotecan or topotecan that accumulates intracellularly, thereby protecting cancer cells from the cytotoxic effects of these chemotherapeutic drugs.

The test system of data set [8] is HCT116-A2 cells. In words: cells. It counts as cell-based, human. To be noted: for RP: IC50 of topotecan divided by IC50 of the drug.
Description: (§3) Cancer cell viability and growth are determined by MTT assay. […] MTT is used as a colorimetric substrate for measuring cell viability and growth. When cell growth is inhibited, there is an alteration of cellular redox activity, and thus rendering cells unable to reduce the MTT dye. Cells are seeded in 96 well plates overnight and then treated with or without a compound/drug in the presence or absence of an protein molecule inhibitor (e.g. ABCG2 inhibitor ko143) for 48-72 hours, MTT is added to a final concentration 0.5 mg/ml. Cells are continuously incubated in a 5% CO2 incubator at 37° C. for 4 h with MTT and then lysed with a cell lysis buffer (20% SDS, 50% N,N-dimethylformamide, pH 4.7), 100 μl per well, for 4 h in the incubator. Subsequently, cell absorbance in each well is measured at 570 nm with an Ultra Microplate Reader (Bio-Tek Instruments). Results are reported as the mean±SD from 3-5 independent assays at each point. […] After 72 hours, media is removed and cells are harvested using 0.5 ml of 0.25% Trypsin-EDTA. Cells are counted and viability is analyzed on a Vi-CELL XR Cell Viability Analyzer (Beckman Coulter).
The test system of data set [9] is HCT116-C4 cells. In words: cells. It is filed as cell-based, human. As to conditions: for RP: IC50 of topotecan divided by IC50 of the drug.
Description: Cancer cell viability and growth are determined by MTT assay. […] MTT is used as a colorimetric substrate for measuring cell viability and growth. When cell growth is inhibited, there is an alteration of cellular redox activity, and thus rendering cells unable to reduce the MTT dye. Cells are seeded in 96 well plates overnight and then treated with or without a compound/drug in the presence or absence of an protein molecule inhibitor (e.g. ABCG2 inhibitor ko143) for 48-72 hours, MTT is added to a final concentration 0.5 mg/ml. Cells are continuously incubated in a 5% CO2 incubator at 37° C. for 4 h with MTT and then lysed with a cell lysis buffer (20% SDS, 50% N,N-dimethylformamide, pH 4.7), 100 μl per well, for 4 h in the incubator. Subsequently, cell absorbance in each well is measured at 570 nm with an Ultra Microplate Reader (Bio-Tek Instruments). Results are reported as the mean±SD from 3-5 independent assays at each point. Alternatively, for FIG. 16, FIG. 17 and FIG. 19, cells are plated at a density of 300,000 cells/well in 6-well plates; cells are allowed to attach on the plate overnight. […] After 72 hours, media is removed and cells are harvested using 0.5 ml of 0.25% Trypsin-EDTA. Cells are counted and viability is analyzed on a Vi-CELL XR Cell Viability Analyzer (Beckman Coulter).
The test system of data set [10] is HCT116-G7 cells. Description: cells. It is filed as cell-based, human. As to conditions: for RP: IC50 of topotecan divided by IC50 of the drug.
Description: as §3
The subject of data set [11] is HCT116-NS6 cells. In words: cells. It is filed as cell-based, human. As to conditions: for RP: IC50 of topotecan divided by IC50 of the drug.
Description: as §3
Data set [12] concerns HCT116-C8 cells. Description: cells. It counts as cell-based, human. As to conditions: for RP: IC50 of topotecan divided by IC50 of the drug.
Description: as §3
Data set [13] deals with HCT116 colon cancer cells. In words: cells. It is filed as cell-based, human. To be noted: for RP: IC50 of topotecan divided by IC50 of the drug.
Description: as §3
Data set [14] relates to ABCG2 in HCT116-A2 cells. In words: Growth inhibition after ABCG2 shRNA silencing. It counts as cell-based, human. To be noted: 72 hours. On the procedure:
Actin is internal control. B and C. […] Cells at sub-confluence are infected with lentiviral particles containing nonsense shRNA (ns), or AGCG2-specific shRNA (sh1, sh2) to silence ABCG2 expression in the cells. […] Viability for each dose was determined using a ViCELL XR cell viability analyzer and normalized to that of DMSO control. Error bars=SEM, n=3 independent experiments. Data are plotted graphically and EC50 values are calculated using GraphPad Prism 6.0.

The subject of data set [15] is ABCG2 in HEK293 cells.
The nature of data set [16]: in vivo. As to conditions: SCID, mouse, in vivo, ip. On the procedure:
Individual tumor curves derived from individual mice are shown. A. Mice with FaDu head-&-neck tumor xenografts were first treated with irinotecan at its maximum tolerated dose (MTD, 100 mg/kg, IP) weekly for 4-5 times (black arrow). […] B. Mice with FaDu tumor xenografts were first treated with topotecan at its MTD (4 mg/kg, IP) via daily×5 schedules for 4 cycles (each black arrow is one cycle). […] C. Mice with SW620 CRC xenografts were first treated with irinotecan at its MTD (IP, weekly×4, black arrow). […] D. Mice with SW620 xenograft tumors were first treated with topotecan at its MTD.

Data set [17] deals with ABCG2 in HEK293 cells. Description: Intracellular drug concentration by flow cytometry. It counts as cell-based, human. How it is done:
Cells are then incubated for 3 h in 37 C and 5% CO2, with manual agitation every 30 min. After incubation, cells are pelleted and supernatant is removed. Cell pellets are washed twice with ice-cold PBS, and then suspended in 300 uL ice-cold PBS, and placed on ice until analysis. Cells are analyzed on a LSR II flow cytometer (BD Biosciences, San Jose Calif.) with a 355 nm laser and a 540 nm band-pass filter to detect emission. Median fluorescence intensity (MFI) of each drug+/−Ko143 is compared.

In data set [18] the test system is HCT-8 cells. In words: Colony formation after 2 h or 6 h drug treatment. It is filed as cell-based, human. On the procedure: Subconfluent SW620, HCT-8, and HCT-116 cells were lysed and analyzed for the expression of MDR1 and ABCG2 using western blots (WB). Actin is the internal control. […] Cell growth/viability was then analyzed by MTT assays. Each time point in the individual curve is the mean±SD from 3 to 5 independent assays. […] Drugs were then washed out and cells were allowed to grow in new medium without drugs for 2 weeks. Cell colonies were stained with crystal violet solution; images were digitally taken. Triplicate results are shown.
Cell growth is then measured and the data are plotted as percentage of growth inhibition (no drug treatment was set at 0%). […] C. […] Representative cancer cell images were taken with a digital camera under phase-contrast microscope.

In data set [19] the test system is survivin. In words: Western blot for survivin expression in FaDu cells. It counts as cell-based, human. To be noted: 24 hours. A general note: Immunoblotting shows a protein as a band on a membrane.
The subject of data set [20] is cancer cells. Description: Cell growth and viability, MTT. As to conditions: 72 hours. It counts as cell-based, human. On the procedure:
Actin is an internal control for equal protein loading. […] Subconfluent cancer cells as shown are treated with a series of concentrations of crolibulin as shown (0-100 μM) for 72 hours. Cell growth and viability are determined via MTT assay. Each curve is the mean±SD from 4 independent assays.
Crolibulin is an anticancer drug that targets endothelial cells of the cancer vasculature system. Therefore, crolibulin is considered as a vascular disrupt agent (VDA).

The subject of data set [21] is human umbilical vein endothelial cells (HUVECS). Description: Cell growth and viability, MTT. It is filed as cell-based. To be noted: 72 hours.
[22] abbreviates: DU-145, IC50 of topotecan divided by IC50 of the drug.

Where two headings read alike, the source gives them in different places.

What is called IC50 is the concentration that gives 50% inhibition. Consider `CC[C@@]1(O)C(=O)OCc2c1cc1n(c2=O)Cc2cc3ccccc3nc2-1` [CPT, camptothecin], for which the IC50 in data set [1] is 63300 nM; in data set [2] it was 60 nM; in data set [6] it was 21700 nM. In addition, the “RP (relative potency)” value in data set [3] (RC0.1, IC50 of topotecan divided by IC50 of the drug) stood at 0.97; in data set [4] (RC1, IC50 of topotecan divided by IC50 of the drug), 2.69; in data set [5] (setting [22]), 3.17.
Turning to `CCc1c2c(nc3ccc(O)cc13)-c1cc3c(c(=O)n1C2)COC(=O)[C@]3(O)CC` [SN-38], the half-maximal inhibitory concentration (IC50) is 11700 nM in data set [1]; 40 nM in [2]; 43.4 nM in [8]; 25.7 nM in data set [9]; 4.76 nM in data set [10]; 4430 nM in data set [6]. Moreover, the IC50 is 1.11 nM in data set [11], 8.47 nM in data set [12] and 0.192 nM in data set [13]. Moreover, the “effect of ABCG2 inhibitor Ko143 on potency” value in data set [7] (HCT116-A2 cells, 72 hours, Ko143 1 μM) is reported as “Ko143 restores potency to SN-38”. The figures for the “RP (relative potency)” value in data set [3], in data set [4] and in data set [5] were 5.24, 13.2 and 4.75, respectively. In addition, the RP in data set [8] was determined as 2.499; in [9], 3.337; in data set [10], 4.048; in data set [11], 5.055; in data set [12] it was 44.69; in [13], 2.474. Further, the “effect of silencing of ABCG2 on cell growth inhibition” value in data set [14] is given as “significantly sensitizes SN-38 to inhibit cell growth”.
In the case of `CC[C@@]1(O)C(=O)OCc2c1cc1n(c2=O)Cc2cc3c(CN(C)C)c(O)ccc3nc2-1` [Topotecan, topotecan], the IC50 was 61200 nM in [1]; 190 nM in data set [2]; 108 nM in data set [8] (Homo sapiens); 85.8 nM in data set [9] (Homo sapiens); 19.3 nM in [10] (Homo sapiens); 58300 nM in data set [6]. For the same compound, the IC50 in data set [11] (Homo sapiens) came out at 5.64 nM; in [12] (Homo sapiens), 379 nM; in data set [13] (Homo sapiens, HCT-116) it was 0.747 nM. In addition, the “effect of ABCG2 overexpression on IC50 for inhibition of cell growth” value in data set [15] is reported as “significantly increases IC50”. This compound displayed an MTD in data set [16] of 4 mg/kg. The “effect of ABCG2 inhibitor Ko143 on potency” value in data set [7] was “ABCG2 is also a topotecan resistance factor”. Further, the “RP (relative potency)” value in [3], in [4] and in data set [5] (setting [22]) was 1 each time. Moreover, the RP in [8], in [9], in data set [10], in data set [11], in data set [12] and in data set [13] was 1 throughout. Further, the “effect of ABCG2 overexpression on intracellular concentration” value in data set [17] was “decreases intracellular concentration”. In addition, the “colony formation inhibition, 6 hours versus 2 hours of treatment” value in data set [18] is given as “significantly better colony formation inhibition”.
Turning to `COc1cc([C@H]2C(C#N)=C(N)Oc3c2ccc(N)c3N)cc(Br)c1OC` [crolibulin, reference compound], the survivin expression result in [19] is “strongly induce survivin expression”. For the same compound, the “sensitivity of cancer cells” value in [20] is “resistant to crolibulin inhibition”. The “sensitivity of HUVEC cells” value in data set [21] is “sensitive to crolibulin inhibition”.

The values above are taken from patent publication US10344037B2, “Use of the FL-one hundred eighteen core chemical structure platform to generate FL-one hundred eighteen derivatives for treatment of human disease” (priority 2014, dated 2019).
